Results on seven compounds are retold here after ChEMBL document CHEMBL1201862, “PubChem BioAssay data set” (2004).

Assay in all cases: NCI anticancer screen, dose series, 48 h
Experiment [1] concerns OVCAR-8.
For experiment [2], the system named is MDA-N.
Experiment [3] has as its system KM12.
The test system of experiment [4] is NCI-H460.
For experiment [5], the system named is U-251.
In experiment [6] the test system is SK-MEL-28.
In experiment [7] the test system is MCF7.
The test system of experiment [8] is A549.
Experiment [9] deals with Hs-578T.
Experiment [10] has as its system 786-0.
The test system of experiment [11] is HCC 2998.
Experiment [12] concerns MDA-MB-231.
The subject of experiment [13] is NCI-H522.
The subject of experiment [14] is HCT-116.
Experiment [15] relates to Malme-3M.
Experiment [16] has as its system SN12C.
Experiment [17] relates to NCI-H226.
In experiment [18] the test system is SK-OV-3.
The test system of experiment [19] is SF-539.
Experiment [20] concerns M14.

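Five compound concentrations were applied to cells in 96-well plates for 48 hours; endpoints were derived by simple linear interpolation of the resulting dose-response curve. Abbreviation: GI50, concentration required for 50% inhibition of growth.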 Calls of active or inactive are those of the source. No stated cut-off is given here; in the data, active = GI50 up to about 1.1 µM and inactive = higher.

Regarding `COc1c(/C=C/C(C)(C)O)cc(C2CC(=O)c3c(O)cc(O)cc3O2)cc1CC=C(C)C` (stereo not given), the GI50 was 10.8 µM (inactive) in experiment [1]; 9.53 µM (inactive) in experiment [2]; 10.4 µM (inactive) in experiment [3]; 8.73 µM (inactive) in experiment [4]; 7.71 µM (inactive) in experiment [5]; 13.2 µM (inactive) in experiment [6]. Moreover, the GI50 in experiment [7] was 8.51 µM (inactive); in experiment [8], 9.75 µM (inactive); in experiment [9] it was 10.7 µM (inactive); in [10], 9.57 µM (inactive); in [11] it was 2.36 µM (inactive); in experiment [12] it was 8.22 µM (inactive). The GI50 in experiment [13] was 9.27 µM (inactive); in [14] it was 9.14 µM (inactive); in experiment [15] it was 10.1 µM (inactive); in experiment [16] it was 6.27 µM (inactive); in [17], 9.71 µM (inactive); in experiment [18], 7.83 µM (inactive). In addition, the GI50 in experiment [19] is 9.4 µM (inactive); in experiment [20], 8.45 µM (inactive).

Take `COc1ccc2c(c1)c1nn(CCN3CCCCC3)c3ccc4c(=O)n(CCN(C)C)c(=O)n2c4c13`: the GI50 in [1] is < 0.01 µM (active); in experiment [2], < 0.0109 µM (active); in experiment [3] it was < 0.01 µM (active); in experiment [4], < 0.01 µM (active); in experiment [5], < 0.01 µM (active); in experiment [6], 0.139 µM (active). Further, the GI50 is < 0.01 µM (active) in experiment [7]; < 0.01 µM (active) in experiment [8]; < 0.0325 µM (active) in [9]; < 0.01 µM (active) in experiment [10]; < 0.01 µM (active) in experiment [11]; < 0.0119 µM (active) in experiment [12]. The GI50 is < 0.01 µM (active) in [13]; < 0.01 µM (active) in experiment [14]; 0.0619 µM (active) in experiment [15]; < 0.01 µM (active) in experiment [16]; 0.0231 µM (active) in experiment [17]; 0.565 µM (active) in experiment [18]. The figures for the GI50 in [19] and in [20] were 0.0284 µM (active) and 0.0188 µM (active), respectively.

Regarding `CC(C)=CC(O)C/C(C)=C/CC/C(C)=C/CCC1(C)C(CCCO)/C(=C(/C)C=O)CCC1(C)O` (stereo not given), the GI50 was 47 µM (inactive) in [1]; 22.1 µM (inactive) in [2]; 22.2 µM (inactive) in [3]; 25.6 µM (inactive) in experiment [4]; 34 µM (inactive) in experiment [5]; 29.6 µM (inactive) in experiment [6]. Also, the GI50 in experiment [7] is 37.4 µM (inactive); in experiment [8] it was 28.4 µM (inactive); in experiment [9] it was 35.6 µM (inactive); in experiment [10], 35.7 µM (inactive); in experiment [11], 26.4 µM (inactive); in [12] it was 24.7 µM (inactive). The GI50 in experiment [13] is 39.7 µM (inactive); in [14], 40 µM (inactive); in experiment [15], 34 µM (inactive); in [16], 31.9 µM (inactive); in [17], 74.3 µM (inactive); in experiment [18] it was 47.8 µM (inactive). The GI50 in [19] was 25.1 µM (inactive); in experiment [20], 26.1 µM (inactive).

Take `CC(=O)OC/C=C(/CCl)CCC(Br)C(C)(C)Br.CC(=O)OC/C=C(\CCl)CCC(Br)C(C)(C)Br` (stereo not given): the GI50 in experiment [1], in [2], in experiment [3], in [4], in [5] and in experiment [6] was > 10 µM (inactive) in each case. Besides, the GI50 in experiment [7], in experiment [8], in experiment [9], in experiment [10], in [11] and in [12] was > 10 µM (inactive) throughout. Besides, the GI50 in experiment [13], in experiment [14], in experiment [15], in [16], in experiment [17] and in experiment [18] was > 10 µM (inactive) each time. Moreover, the GI50 in experiment [19] and in [20] was > 10 µM (inactive) in each case.

Regarding `CN(CCCNC(=O)c1cc(-c2ccccc2)nc2ccccc12)CCCNC(=O)c1cc(-c2ccccc2)nc2ccccc12`, the GI50 in experiment [1] is 2.32 µM (inactive); in [2] it was 1.8 µM (inactive); in [3] it was 2.02 µM (inactive); in experiment [4], 1.78 µM (inactive); in experiment [5], 2.04 µM (inactive); in experiment [6] it was 1.83 µM (inactive). In addition, the GI50 in experiment [7] is 1.48 µM (inactive); in [8], 3.96 µM (inactive); in [9], 4.17 µM (inactive); in experiment [10] it was 1.7 µM (inactive); in experiment [11], 1.93 µM (inactive); in experiment [12] it was 2.44 µM (inactive). In addition, the GI50 is 1.77 µM (inactive) in [13]; 1.79 µM (inactive) in experiment [14]; 1.94 µM (inactive) in [15]; 5.85 µM (inactive) in experiment [16]; 3.81 µM (inactive) in experiment [17]; 13 µM (inactive) in experiment [18]. The GI50 was 2.2 µM (inactive) in experiment [19] and 1.71 µM (inactive) in [20].

On to `CC[C@@]1(O)C(=O)OCc2c1cc1n(c2=O)Cc2c-1nc1ccccc1c2/C=N/NC(=O)c1ccc(N)cc1`, for which the GI50 in experiment [1] is 0.0944 µM (active); in experiment [2], 0.434 µM (active); in [3], 9.4 µM (inactive); in experiment [4], 0.0796 µM (active); in experiment [5], < 0.0141 µM (active); in experiment [6], 0.263 µM (active). The GI50 in [7] is < 0.016 µM (active); in experiment [8], 0.578 µM (active); in [9], > 100 µM (inactive); in experiment [10], 0.0422 µM (active); in experiment [11], 1.12 µM (inactive); in experiment [12] it was 3.06 µM (inactive). For the same compound, the GI50 was < 0.0405 µM (active) in [13]; 0.1 µM (active) in experiment [14]; 0.452 µM (active) in [15]; 0.0543 µM (active) in experiment [16]; 0.04 µM (active) in experiment [17]; 0.158 µM (active) in experiment [18]. The GI50 was < 0.01 µM (active) in experiment [19] and 0.0585 µM (active) in experiment [20].

`Cc1cc(=O)oc2cc(SC(=O)N(C)C)ccc12`: the GI50 in [1], in experiment [2], in [3], in [4], in [5] and in experiment [6] was > 100 µM (inactive) throughout. Also, the GI50 in [7], in [8], in [9], in experiment [10], in experiment [11] and in experiment [12] was > 100 µM (inactive) each time. The GI50 in [13], in [14], in experiment [15], in [16], in [17] and in [18] was > 100 µM (inactive) in each case. The GI50 in experiment [19] and in experiment [20] was > 100 µM (inactive) in each case.
